Measurements published in US8067189B2, “Methods for determining sensitivity to vascular endothelial growth factor receptor-2 modulators by measuring the level of collagen type IV” (Bristol-Myers Squibb Company, priority 2005, dated 2011).

Tested on: L2987 tumor xenograft
Experiment: In vivo antitumor testing, L2987 tumor xenograft model
Parameters: species or system mouse
Settings: L2987, nude mice, 100 mg/kg 1 qd×26
Description: In this example, the Table 2 biomarkers were identified using mouse xenograft tumor models that were treated with the example VEGFR-2 inhibitor.
Tumors were propagated in nude mice as subcutaneous (sc) transplants using tumor fragments obtained from donor mice. Tumor passage occurred approximately every two to four weeks. Tumors were then allowed to grow to the pre-determined size window (usually between 100-200 mg, tumors outside the range were excluded) and animals were evenly distributed to various treatment and control groups. Animals were treated with the example VEGFR-2 inhibitor (100 mg/kg 1 qd×26). Treated animals were checked daily for treatment related toxicity/mortality. […] Tumor response was determined by measurement of tumors with a caliper twice a week, until the tumors reached a predetermined target size of 1 gm or became necrotic. […]
Antitumor activity was determined in terms of primary tumor growth inhibition. This was determined in two ways: (i) calculating the relative median tumor weight (MTW) of treated (T) and control (C) mice at various time points (effects were expressed as % T/C); and (ii) calculating the tumor growth delay (T−C value), defined as the difference in time (days) required for the treated tumors (T) to reach a predetermined target size compared to those of the control group (C). […]

SMILES: Cc1cc2c(F)c(Oc3ncnn4cc(OC[C@@H](C)OC(=O)[C@H](C)N)c(C)c34)ccc2[nH]1 [example VEGFR-2 inhibitor, [(1R),2S]-2-Aminopropionic acid 2-[4-(4-fluoro-2-methyl-1H-indol-5-yloxy)-5-methylpyrrolo[2,1-f][1,2,4]triazin-6-yloxy]-1-methylethyl ester]
- efficacy in mouse xenograft tumor model: highly responsive
